Legend:
Male Wistar rats = experiment: SCORE-2000 sleep-wake assay (EEG/EMG, locomotor activity, body temperature)
rat 5-HT2A receptor = rat 5-HT2A receptor (Rattus norvegicus, UniProt P14842); experiment: 5-HT2A binding study, rat receptor; conditions: read-out: 5HT-2a Ki, Rat
human 5-HT2A receptor = human 5-HT2A receptor (Homo sapiens, UniProt P28223); experiment: 5-HT2A binding study, human receptor; conditions: read-out: 5HT-2a Ki, Human
[1] = 3 mg/kg and 10 mg/kg IP at CT-5

Sequence of rat 5-HT2A receptor (P14842 whole entry): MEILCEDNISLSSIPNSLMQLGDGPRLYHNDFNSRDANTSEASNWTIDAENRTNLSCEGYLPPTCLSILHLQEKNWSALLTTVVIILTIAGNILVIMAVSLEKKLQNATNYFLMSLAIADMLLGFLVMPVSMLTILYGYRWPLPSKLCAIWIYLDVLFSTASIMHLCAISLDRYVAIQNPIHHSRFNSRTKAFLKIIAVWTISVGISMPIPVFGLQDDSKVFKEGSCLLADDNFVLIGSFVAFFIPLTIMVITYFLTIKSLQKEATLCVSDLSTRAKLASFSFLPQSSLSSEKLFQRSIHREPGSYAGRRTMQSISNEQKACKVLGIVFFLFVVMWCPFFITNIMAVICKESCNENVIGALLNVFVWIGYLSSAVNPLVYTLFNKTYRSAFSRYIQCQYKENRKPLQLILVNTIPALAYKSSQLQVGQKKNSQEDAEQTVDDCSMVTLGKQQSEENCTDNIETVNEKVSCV
Sequence of human 5-HT2A receptor (P28223 whole entry): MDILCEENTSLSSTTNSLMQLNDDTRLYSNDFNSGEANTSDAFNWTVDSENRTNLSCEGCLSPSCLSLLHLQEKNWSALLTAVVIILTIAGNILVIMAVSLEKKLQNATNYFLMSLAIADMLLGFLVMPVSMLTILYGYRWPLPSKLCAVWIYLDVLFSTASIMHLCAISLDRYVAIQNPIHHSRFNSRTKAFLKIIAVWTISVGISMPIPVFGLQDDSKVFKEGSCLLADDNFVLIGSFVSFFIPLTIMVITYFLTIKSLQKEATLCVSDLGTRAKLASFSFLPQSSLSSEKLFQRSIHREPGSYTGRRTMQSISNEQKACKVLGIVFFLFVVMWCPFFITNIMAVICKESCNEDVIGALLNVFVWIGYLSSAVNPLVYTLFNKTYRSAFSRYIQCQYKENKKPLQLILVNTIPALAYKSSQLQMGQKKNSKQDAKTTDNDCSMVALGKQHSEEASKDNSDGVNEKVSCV

Clc1cccc(N2CCNCC2)c1 [m-CPP, meta-chlorophenylpiperazine]
duration of interference with sleep post-treatment (Male Wistar rats; [1]): 2 to 3 h | duration of reduction in nonREM sleep time post-treatment (Male Wistar rats; [1]): 2 to 3 h | rebound hypersomnolence after sleep interference (Male Wistar rats; [1]): followed by a rebound hypersomnolence

Cl.O=C(O)C1CN(CCCn2nc3ccccn3c2=O)CCN1c1cccc(Cl)c1 (stereo not shown) [HY-2724]
Ki (rat 5-HT2A receptor): 989 nM | Ki (human 5-HT2A receptor): > 10000 nM | activity on sleep-wakefulness in all measured variables (Male Wistar rats; 30 mg/kg): inactive | increasing sleep and sleep consolidation (Male Wistar rats; 30 mg/kg): ineffective
